Assay results as given in PubChem BioAssay (NCI).
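Exposure lasted 48 hours, with cells grown in 96-well plates and compounds tested at five concentrations. GI50: concentration for 50% inhibition of growth. Definition used: TGI = concentration required for complete inhibition of growth.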

Columns and labels:
Assay in all cases: growth of human tumour cells (NCI), 48 h
[1] = system: HCC-2998 colon
[2] = system: A549 NSCLC
[3] = system: MDA-MB-231 breast
[4] = system: RXF 393 renal
[5] = system: BT-549 breast
[6] = system: HCT-15 colon
[7] = system: UACC-62 melanoma
[8] = system: NCI/ADR-RES ovarian
[9] = system: SK-MEL-2 melanoma
[10] = system: CCRF-CEM leukemia
[11] = system: SNB-75 CNS
[12] = system: OVCAR-3 ovarian
[13] = system: NCI-H460 lung
[14] = system: HOP-92 NSCLC
[15] = system: K-562 leukemia
[16] = system: U251 CNS
[17] = system: SF-295 CNS
[18] = system: SF-268 CNS
[19] = system: NCI-H226 lung
[20] = system: KM12 colon
[21] = system: TK-10 renal
[22] = system: LOX IMVI melanoma
[23] = system: PC-3 prostate
[24] = system: SR leukemia
[25] = system: ACHN renal
[26] = system: MALME-3M melanoma
[27] = system: CAKI-1 renal
[28] = system: RPMI-8226 leukemia
[29] = system: COLO 205 colon
[30] = system: SK-MEL-5 melanoma
[31] = system: IGROV1 ovarian
[32] = system: OVCAR-4 ovarian
[33] = system: SK-OV-3 ovarian
[34] = system: SN12C renal
[35] = system: NCI-H522 lung
[36] = system: OVCAR-8 ovarian
[37] = system: NCI-H23 lung
[38] = system: SNB-19 CNS
[39] = system: MDA-MB-435
[40] = system: HCT-116 colon
[41] = system: T-47D breast
[42] = system: HOP-62 NSCLC
[43] = system: MOLT-4 leukemia
[44] = system: SK-MEL-28 melanoma
[45] = system: SW-620 colon
[46] = system: A498 renal
[47] = system: 786-0 renal
[48] = system: SF-539 CNS
[49] = system: MCF7 breast
[50] = system: HL-60(TB) leukemia
[51] = system: HS 578T breast
[52] = system: UO-31 renal
[53] = system: UACC-257 melanoma
[54] = system: OVCAR-5 ovarian
[55] = system: HT29 colon
[56] = system: DU-145 prostate
[57] = system: M14 melanoma

`CCn1cnc(C[C@H](NC(=O)[C@@H](NC(=O)Nc2cc(C(F)(F)F)cc(C(F)(F)F)c2)C(C)(C)C)C(=O)OC)c1` gave a GI50 [1] of over 10 µM, a TGI [1] of over 10 µM and a GI50 [2] of over 10 µM. It also gave a TGI [2] of over 10 µM, a GI50 [3] of over 10 µM and a TGI [3] of over 10 µM. It also gave a GI50 [4] of over 10 µM, a TGI [4] of over 10 µM and a GI50 [5] of over 10 µM. The TGI [5] was over 10 µM, the GI50 [6] was over 10 µM and the TGI [6] was over 10 µM. For the same molecule, the GI50 [7] was over 10 µM, the TGI [7] was over 10 µM and the GI50 [8] was over 10 µM. The TGI [8] was over 10 µM, the GI50 [9] was over 10 µM and the TGI [9] was over 10 µM. For the same molecule, the GI50 [10] was over 10 µM, the TGI [10] was over 10 µM and the GI50 [11] was over 10 µM. It also gave a TGI [11] of over 10 µM, a GI50 [12] of over 10 µM and a TGI [12] of over 10 µM. The GI50 [13] was over 10 µM, the TGI [13] was over 10 µM and the GI50 [14] was over 10 µM. For the same molecule, the TGI [14] was over 10 µM, the GI50 [15] was over 10 µM and the TGI [15] was over 10 µM. The GI50 [16] was over 10 µM, the TGI [16] was over 10 µM and the GI50 [17] was over 10 µM. The TGI [17] was over 10 µM, the GI50 [18] was over 10 µM and the TGI [18] was over 10 µM. The GI50 [19] was over 10 µM, the TGI [19] was over 10 µM and the GI50 [20] was over 10 µM. For the same molecule, the TGI [20] was over 10 µM, the GI50 [21] was over 10 µM and the TGI [21] was over 10 µM. The GI50 [22] was over 10 µM, the TGI [22] was over 10 µM and the GI50 [23] was over 10 µM. The TGI [23] was over 10 µM, the GI50 [24] was over 10 µM and the TGI [24] was over 10 µM. It also gave a GI50 [25] of over 10 µM, a TGI [25] of over 10 µM and a GI50 [26] of over 10 µM. The TGI [26] was over 10 µM, the GI50 [27] was over 10 µM and the TGI [27] was over 10 µM. For the same molecule, the GI50 [28] was over 10 µM, the TGI [28] was over 10 µM and the GI50 [29] was over 10 µM. It also gave a TGI [29] of over 10 µM, a GI50 [30] of over 10 µM and a TGI [30] of over 10 µM. It also gave a GI50 [31] of over 10 µM, a TGI [31] of over 10 µM and a GI50 [32] of over 10 µM. The TGI [32] was over 10 µM, the GI50 [33] was over 10 µM and the TGI [33] was over 10 µM. The GI50 [34] was over 10 µM, the TGI [34] was over 10 µM and the GI50 [35] was over 10 µM. The TGI [35] was over 10 µM, the GI50 [36] was over 10 µM and the TGI [36] was over 10 µM. For the same molecule, the GI50 [37] was over 10 µM, the TGI [37] was over 10 µM and the GI50 [38] was over 10 µM. The TGI [38] was over 10 µM, the GI50 [39] was over 10 µM and the TGI [39] was over 10 µM. The GI50 [40] was over 10 µM, the TGI [40] was over 10 µM and the GI50 [41] was over 10 µM. It also gave a TGI [41] of over 10 µM, a GI50 [42] of over 10 µM and a TGI [42] of over 10 µM. It also gave a GI50 [43] of over 10 µM, a TGI [43] of over 10 µM and a GI50 [44] of over 10 µM. The TGI [44] was over 10 µM, the GI50 [45] was over 10 µM and the TGI [45] was over 10 µM. The GI50 [46] was over 10 µM, the TGI [46] was over 10 µM and the GI50 [47] was over 10 µM. The TGI [47] was over 10 µM, the GI50 [48] was over 10 µM and the TGI [48] was over 10 µM. For the same molecule, the GI50 [49] was over 10 µM, the TGI [49] was over 10 µM and the GI50 [50] was over 10 µM. The TGI [50] was over 10 µM, the GI50 [51] was over 10 µM and the TGI [51] was over 10 µM. For the same molecule, the GI50 [52] was over 10 µM, the TGI [52] was over 10 µM and the GI50 [53] was over 10 µM. The TGI [53] was over 10 µM, the GI50 [54] was over 10 µM and the TGI [54] was over 10 µM. The GI50 [55] was over 10 µM, the TGI [55] was over 10 µM and the GI50 [56] was over 10 µM. It also gave a TGI [56] of over 10 µM, a GI50 [57] of over 10 µM and a TGI [57] of over 10 µM.
